Key:
[1] = test system: A549 (non-small cell lung carcinoma) cells; assay: MTT cytotoxicity assay, A549 monolayer; type: cell-based, human; details: exposure time 96 h, mean ± SD
Method: (§1) CH1/PA-1 (ovarian teratocarcinoma), SW480 (colon carcinoma) and A549 (non-small cell lung cancer) cells were maintained as described in the reference. IMR-90 human fetal lung fibroblasts (from the European Collection of Authenticated Cell Cultures, Porton Down, Salisbury, UK) were cultured in Stable Cell^TM DMEM/F12 supplemented with 0.01 mg/mL human recombinant insulin (both purchased from Sigma-Aldrich) and 10% fetal bovine serum (FBS, BioWest, Nuaillé, France). Human colon carcinoma cell lines HCT116 and HT29 (both kindly provided by the Institute of Cancer Research, Department of Medicine I, Medical University of Vienna, Austria) were cultured in McCoy’s 5a medium supplemented with 4 mM L-glutamine (both purchased from Sigma-Aldrich) and 10% FBS. MCF-7 human breast adenocarcinoma cells (kindly provided by M. Ogris, Department of Pharmaceutical Sciences, University of Vienna, Austria) were maintained in DMEM (high glucose) supplemented with 4 mM L-glutamine, 0.1 mg/mL human insulin (all purchased from Sigma-Aldrich) and 10% FBS. All cell lines were grown as monolayers in 75 cm^2 culture flasks (CytoOne, Starlab, Hamburg, Germany) at 37 °C in a humidified atmosphere containing 5% CO2.
(§2) Exponentially growing cells were plated into 96-well microculture plates (CytoOne, tissue culture treated, Starlab, Hamburg, Germany) in densities of 1 × 10^3 CH1/PA-1, 2 × 10^3 SW480, 3 × 10^3 A549 and 7 × 10^3 IMR-90 cells per well (each in 100 µL). After a 24 h preincubation, drugs were added in serial dilution to give a final volume of 200 µL/well and exposed for 96 h. At the end of the exposure, the drug solutions were replaced by 100 µL RPMI 1640/MTT mixture (7:1 ratio). MTT (3-(4,5-dimethylthiazol-2-yl)-2,5-diphenyl-2H-tetrazolium bromide), (Acros Organics, Geel, Belgium) solution was prepared in phosphate-buffered saline (5 mg/mL) and mixed with RPMI1640 medium supplemented with 4 mM L-glutamine (both from Sigma-Aldrich) and 10% FBS. After 4 h incubation, the formazan crystals were solubilized in 150 µL of DMSO per well. Absorbance was measured at 550 nm (and at 690 nm as a reference) with a microplate reader (ELx808, BioTek, Winoosky, VT, USA) and Gen5^TM 3.08 software (BioTek). The 50% inhibitory concentrations (IC50) relative to untreated controls were interpolated from concentration-effect curves. At least three biologically and technically independent experiments were performed.

[2] = test system: SW480 (colon carcinoma) cells; assay: MTT cytotoxicity assay, SW480 monolayer; type: cell-based, human; details: exposure time 96 h, mean ± SD
Method: as §1, §2

[3] = test system: HCT116 multicellular tumor spheroids; assay: Resazurin assay, HCT116 3D spheroids; type: cell-based, human; details: 96 h; for IC50: spheroids
Method: as §1
For growing multicellular tumor spheroids, 400 HCT116, 400 HT29 or 800 MCF-7 cells per well were plated into round-bottom ultra-low attachment 96-well plates (Corning, Glendale, AZ, USA) in the media described above and incubated at 37 °C for 96 h. Spheroids were treated with 10 µM of the two most cytotoxic compounds 3 and 4 for another 96 h. The diameters of the spheroids were measured with Cell^F software under a CKX41 Olympus microscope before treatment and in constant daily intervals over the 96 h treatment period. For statistical analysis the t-test with Welsh’s correction was implemented in GraphPad Prism software (Version 6.01).
For the resazurin assay in monolayer cultures, cells were seeded into 96-well microculture plates (CytoOne, tissue culture treated, Starlab, Hamburg, Germany) in densities of 2 × 10^3 HCT116, 2 × 10^3 HT29 and 4 × 10^3 MCF-7 cells per well (each in 100 µL). For tests in 3D cultures, spheroids were grown as described above. After 24 h (for monolayers) or 4 days (for spheroids) the test compounds in the appropriate medium were added in serial dilution to the plates to obtain a total volume of 200 µL/well. Wells without cells, containing medium and resazurin (Alfa Aesar, Thermo Fisher, Kandel, Germany) solution were used as blanks. After 96 h exposure 20 µL of the resazurin solution (440 µM) were added to each well, followed by a 4 h (2D) or 12 h (3D) incubation period. Resorufin fluorescence was quantified at 530 nm (and a reference wavelength of 620 nm) by using a microplate reader (Synergy HT, BioTek) with Gen5^TM 3.10 software (BioTek).

[4] = Cyclic voltammetry in MeCN (W(IV) to W(V)); type: physicochemical; details: vs. NHE, scan rate 200 mV/s
Method: NMR spectra were recorded with a Bruker FT-NMR Avance III^TM 500 MHz spectrometer at 500.10 (^1H), and 125.75 MHz (^13C) using DMSO–d6. 2D-NMR measurements were recorded utilizing standard pulse programs COSY, HSQC and HMBC. The Microanalytical Laboratory of the University of Vienna performed the elemental analyses with a Eurovector EA 3000(2009) equipped with a high temperature pyrolysis furnace (HT, Hekatech, Germany, 2009). Elemental analyses’ samples were weighed (weights from 1–3 mg were used) on a Sartorius SEC 2 ultra-micro balance with ±0.1 µg resolution. Two NIST-certified reference materials were used for calibration: sulfanilamide (C6H8N2O2S) and BBOT (2,5-bis-(5-tert-butyl-2-benzoxazol-2-yl)-thiophenone, C26H26N2O2S). The limit of quantification (LOQ) was 0.05 w% for C, H, N and 0.02 w% for S. For samples without N and/or S, the content of these elements was determined and verified to be below the LOQ. X-ray diffraction analyses were carried out on a Bruker X8 APEX II CCD diffractometer at 100 K. ESI-MS were recorded on a Bruker AmaZon SL ion trap mass spectrometer (Bruker Daltonics GmbH). Data were obtained and processed with Compass 1.3 and Data Analysis 4.0 (Bruker Daltonics GmbH). Infrared spectra were attained on a Bruker Vertex 70 FT-IR-spectrometer with an ATR-unit (attenuated total reflection unit) in the range of 4000–600 cm^−1. Intensities of the reported bands are described with w for weak, m for medium and s for strong; broad signals are additionally specified with the letter b in front of these abbreviations. Cyclic voltammograms (CVs) were measured in a three-electrode cell using 2 mm diameter glassy carbon disk working electrode, a platinum auxiliary electrode and an Ag|Ag^+ reference electrode containing 0.1 M AgNO3. Measurements were carried out at room temperature using an EG&G PARC potentiostat/galvanostat 273A. The solutions were deoxygenized by purging a stream of argon for 3 min through the solution and the experiment was performed under an argon atmosphere. The potentials were measured in a freshly prepared solution of (n Bu4N)[BF4] (0.1 M) in acetonitrile using ferrocene (Fe(η^5-C5H5)2) (E1/2 = +0.72 V vs. NHE) as an internal standard and are quoted relative to the normal hydrogen electrode (NHE).
The electrochemical behavior of all complexes and the precursor Cp2WCl2 was studied by cyclic voltammetry with a scan rate of 200 mV/s, from −0.5 to +1.2 or +1.5 V. Measurements were performed in triplicate. Due to low water solubility of compounds 1–10 acetonitrile (MeCN) was utilized in order to reach the 2 mM concentration.

Cc1occc(=S)c1[O-].F[P-](F)(F)(F)(F)F.[W+4].c1cc[cH-]c1.c1cc[cH-]c1 [Compound 2, Bis(η^5-cyclopentadienyl)[2-methyl-3-(oxo-κO)-4-(1H)-pyran-4-thionato-κS]tungsten(IV) hexafluorophosphate]
IC50 [1]: 36 ± 6 µM
IC50 [2]: 36 ± 7 µM
ratio 3D/2D of IC50 values, HCT116 [3]: 1.6
IC50 [3]: 158 ± 28 µM
E1/2 [4]: 1.047 V

F[P-](F)(F)(F)(F)F.O=c1c([O-])c(-c2ccc(Cl)cc2)oc2ccccc12.[W+4].c1cc[cH-]c1.c1cc[cH-]c1 [Compound 3, Bis(η^5-cyclopentadienyl)[2-(4-chlorophenyl)-3-(oxo-κO)-4(H)-chromen-4-oato-κO]tungsten(IV) hexafluorophosphate]
IC50 [1]: 19 ± 3 µM
IC50 [2]: 5.4 ± 1.1 µM
ratio 3D/2D of IC50 values, HCT116 [3]: 2.3
IC50 [3]: 21 ± 4 µM
E1/2 [4]: 1.059 V

F[P-](F)(F)(F)(F)F.[O-]c1c(-c2ccc(Cl)cc2)oc2ccccc2c1=S.[W+4].c1cc[cH-]c1.c1cc[cH-]c1 [Compound 4, Bis(η^5-cyclopentadienyl)[2-(4-chlorophenyl)-3-(oxo-κO)-4(H)-chromen-4-thionato-κS]tungsten(IV) hexafluorophosphate]
IC50 [1]: 6.3 ± 0.5 µM
IC50 [2]: 2.4 ± 0.5 µM
ratio 3D/2D of IC50 values, HCT116 [3]: 2.5
IC50 [3]: 15 ± 4 µM
E1/2 [4]: 1.082 V

F[P-](F)(F)(F)(F)F.O=C([O-])c1ccccn1.[W+4].c1cc[cH-]c1.c1cc[cH-]c1 [Compound 5, Bis(η^5-cyclopentadienyl)[2-(carboxylato-κO)-pyridine-κN]tungsten(IV) hexafluorophosphate]
IC50 [1]: > 200 µM
IC50 [2]: 147 ± 21 µM
IC50 [3]: > 200 µM
E1/2 [4]: 1.330 V

Cc1c([O-])c(=O)ccn1C.F[P-](F)(F)(F)(F)F.[W+4].c1cc[cH-]c1.c1cc[cH-]c1 [Compound 6, Bis(η^5-cyclopentadienyl)[1,2-dimethyl-3-(oxo-κO)-4-(1H)-pyridonato-κO]tungsten(IV) hexafluorophosphate]
IC50 [1]: 141 ± 36 µM
IC50 [2]: 154 ± 29 µM
IC50 [3]: > 200 µM
E1/2 [4]: 0.885 V

Cc1cc(=O)c([O-])co1.F[P-](F)(F)(F)(F)F.[W+4].c1cc[cH-]c1.c1cc[cH-]c1 [Compound 7, Bis(η^5-cyclopentadienyl)[2-methyl-5-(oxo-κO)-4-(1H)-pyran-4-ato-κO] tungsten(IV) hexafluorophosphate]
IC50 [1]: > 200 µM
IC50 [2]: > 200 µM
IC50 [3]: > 200 µM
E1/2 [4]: 1.071 V

Cc1cc(=S)c([O-])co1.F[P-](F)(F)(F)(F)F.[W+4].c1cc[cH-]c1.c1cc[cH-]c1 [Compound 8, Bis(η^5-cyclopentadienyl)[2-methyl-5-(oxo-κO)-pyran-4-(1H)-thionato-κS] tungsten(IV) hexafluorophosphate]
IC50 [1]: > 200 µM
IC50 [2]: 129 ± 14 µM
IC50 [3]: 178 ± 14 µM
E1/2 [4]: 1.080 V

CCc1occc(=O)c1[O-].F[P-](F)(F)(F)(F)F.[W+4].c1cc[cH-]c1.c1cc[cH-]c1 [Compound 9, Bis(η^5-cyclopentadienyl)[2-ethyl-3-(oxo-κO)-4-(1H)-pyran-4-ato-κO] tungsten(IV) hexafluorophosphate]
IC50 [1]: > 200 µM
IC50 [2]: 101 ± 15 µM
IC50 [3]: > 200 µM
E1/2 [4]: 1.038 V

CCc1occc(=S)c1[O-].F[P-](F)(F)(F)(F)F.[W+4].c1cc[cH-]c1.c1cc[cH-]c1 [Compound 10, Bis(η^5-cyclopentadienyl)[2-ethyl-3-(oxo-κO)-4-(1H)-pyran-4-thionato-κS] tungsten(IV) hexafluorophosphate]
IC50 [1]: 53 ± 8 µM
IC50 [2]: 13 ± 1 µM
ratio 3D/2D of IC50 values, HCT116 [3]: 1.6
IC50 [3]: 69 ± 12 µM
E1/2 [4]: 1.064 V

Source: PMC10384408, “Anticancer Tungstenocenes with a Diverse Set of (O,O–), (O,S–) and (O,N–) Chelates—A Detailed Biological Study Using an Improved Evaluation via 3D Spheroid Models” (Pharmaceutics, 2023)
